Legend:
[1] = tested on: Staphylococcus aureus SG 511; assay: MIC, serial dilution test in the microtiter system; type: cell-based; conditions: SG511, 18 h, Staph. Aureus SG 511, 37° C., 18-20 hours
Description: (§1) The tests were performed according to the method of the serial dilution test in the microtiter system. The effect of the substances on bacteriostasis was examined in a fluid medium. The activity on bacteriostatis was examined at the following concentrations:
(§2) 10 gm of peptone, 8 gm of meat extract-oxoid, 3 gm of sodium chloride, 2 gm of sec. sodium phosphate were diluted with distilled water to 1000 ml (pH 7.2-7.4). Only in the test against streptococci 1% of glucose was added. The age of the primary cultures was about 20 hours. The standardizations of the pathogen suspension was effected by using a photometer according to "Eppendorf" (test tube diameter 14 mm, filter 546 nm) with the aid of the turbidity of a comparison suspension consisting of barium sulfate, this suspension being prepared by addition of 3.0 ml of 1% barium chloride solution to 97 ml of 1% sulfuric acid. After the standardization, streptococcus aronson were further diluted to a concentration of 1:15 and the other germs to a concentration of 1:1500 by menas of a sodium chloride solution.
(§3) 16 mg of the test substance were put into a 10 ml measuring flask and filled up to the mark with the solvent. The further dilution series was standardized with distilled water or the respective solvent.
(§4) The cavities of the microtiter plates were filled with 0.2 ml of nutrient medium. Then, 0.01 ml of the corresponding test substance dilution was added and inoculated with 0.01 ml of the standardized suspension. The bacteria were incubated at 37° C. for 18-20 hours. Control tests merely using the solvent were carried out simultaneously.
(§5) The measurement was carried out macroscopically to determine the minimal inhibitory (threshold) concentration, i.e. the lowest still bacteriostatically effective concentration.
(§6) Staphylococcus aureus SG 511, streptococcus aronson, streptococcus faecalis ATCC 10541, escherichia coli ATCC 9637, 11 775 and escherichia coli 12593/74 (β-lactamase carrier), pseudomonas aeruginosa hamburgensis and ATCC 10145, serratia marcescens ATCC 13 880, klebsiella pneumoniae ATCC 10 031 and 272 and proteus mirabilis hamburgensis.

[2] = tested on: escherichia coli 12593/74 (β-lactamase carrier); assay: MIC, serial dilution test in the microtiter system; type: cell-based; conditions: 18 h, E. coli 12593/74 (β-lactamase carrier), 37° C., 18-20 hours
Description: as §1, §2, §3, §4, §5, §6

[3] = tested on: escherichia coli ATCC 11775; assay: MIC, serial dilution test in the microtiter system; type: cell-based; conditions: ATCC11775, 18 h, E. coli ATCC 11775, 37° C., 18-20 hours
Description: as §1, §2, §3, §4, §5, §6

[4] = tested on: escherichia coli ATCC 9637; assay: MIC, serial dilution test in the microtiter system; type: cell-based; conditions: ATCC9637, 18 h, E. coli ATCC 9637, 37° C., 18-20 hours
Description: as §1, §2, §3, §4, §5, §6

[5] = tested on: klebsiella pneumoniae 272; assay: MIC, serial dilution test in the microtiter system; type: cell-based; conditions: 18 h, klebs pneum. 272, 37° C., 18-20 hours
Description: as §1, §2, §3, §4, §5, §6

[6] = tested on: klebsiella pneumoniae ATCC 10 031; assay: MIC, serial dilution test in the microtiter system; type: cell-based; conditions: 18 h, klebs pneum ATCC 10031, 37° C., 18-20 hours
Description: as §1, §2, §3, §4, §5, §6

[7] = tested on: proteus mirabilis hamburgensis; assay: MIC, serial dilution test in the microtiter system; type: cell-based; conditions: 18 h, prot. mirabilis, 37° C., 18-20 hours
Description: as §1, §2, §3, §4, §5, §6

[8] = tested on: pseudomonas aeruginosa ATCC 10145; assay: MIC, serial dilution test in the microtiter system; type: cell-based; conditions: ATCC10145, 18 h, pseud. aerug. ATCC 10145, 37° C., 18-20 hours
Description: as §1, §2, §3, §4, §5, §6

[9] = tested on: pseudomonas aeruginosa hamburgensis; assay: MIC, serial dilution test in the microtiter system; type: cell-based; conditions: 18 h, pseud. aerug. hamb., 37° C., 18-20 hours
Description: as §1, §2, §3, §4, §5, §6

[10] = tested on: serratia marcescens ATCC 13 880; assay: MIC, serial dilution test in the microtiter system; type: cell-based; conditions: ATCC13, 18 h, serrat marcesc., 37° C., 18-20 hours
Description: as §1, §2, §3, §4, §5, §6

streptococcus aronson = assay: MIC, serial dilution test in the microtiter system; type: cell-based; conditions: 18 h, strept. aronson, 1% glucose added, 37° C., 18-20 hours
Description: as §1, §2, §3, §4, §5, §6

[11] = tested on: streptococcus faecalis ATCC 10541; assay: MIC, serial dilution test in the microtiter system; type: cell-based; conditions: Enterococcus faecalis, ATCC10541, 18 h; strept. faecal.; 37° C., 18-20 hours
Description: as §1, §2, §3, §4, §5, §6

[12] = Serum (blood) level in rats; type: in vivo; conditions: rat, average from 3 rats; for concentration at 1 h: 60 min.; for concentration at 2 h: 120 min.; for concentration at 0.5 h: 30 min.
Description: For the determination of the serum level in rats, typical representatives of the penicillins according to the invention were administered at a dosage of 10 mg/kg subcutaneously or 100 mg/kg per os to groups of 3 female FW 49 rats (weight 100 to 130 gm) each. Blood tests taken from the heart were worked up, and the obtained sera were tested by the cylinder test-agar diffusion method on plates with sarcina lutea ATCC 15957. The samples were compared with standard curves.

E. coli ATCC 11775 [13] = assay: In vivo activity against experimental infection in mice; set-up: species or system mouse (NMRI); conditions: Escherichia coli, ATCC11775, sc, 168 h, subcutaneous, 7 days observation, read-out: ED50 (dose at which 50% of the animals survived)
Description: A number of compounds of this invention were tested in vivo in mice against experimental infections. Bacteria E. coli ATCC 11775 and pseudomonas aeruginosa walter were used as pathogens. An intraperitoneal infection with 0.2 ml of a 5% mucin suspension of the bacteria was induced. This corresponds to about 2×10^6 germs E. coli and 8×10^5 germs pseudomonas/mouse. Female NMRI mice were divided into groups of 10 animals each, two control groups remained untreated, the remaining groups were treated with different doses of the respective penicillins for the determination of the ED50 (dose at which 50% of the animals survived). The groups with the E. coli infection were treated with the substance 3 times on the first day (1, 4 and 7 hours post-infectionem) and for 2 days thereafter twice a day. The groups with the pseudomonas infection were treated with the substance applied 6 times on the first day (1, 3, 6, 9, 12, and 15 hours post-infectionem) and for 2 days thereafter twice a day. The observation time was in both cases 7 days.

E. coli ATCC 11775 [14] = assay: Influence of the size of the inoculum on the MIC-values; type: cell-based; conditions: Escherichia coli
Description: (§7) For the penicillins C and H, which are typical representatives for this invention, the influence of the size of the inoculum on the MIC-values against ps. aerug. hamburg. and E. coli ATCC 11775 in the microtiter system was determined. Thereby 3 different sizes of inoculum (3.3×10^6, 3.3×10^4 and 3.3×10^2 in E. coli and 4.7×10^6, 4.7×10^4 and 4.7×10^2 in pseudomonas) were used. The reference system was again penicillin Q.

pseud. aerug. hamburg. = assay: as above; type: cell-based; conditions: Pseudomonas aeruginosa
Description: as §7

| SMILES | MIC [1] [µg/mL] | MIC [2] [µg/mL] | MIC [3] [µg/mL] | MIC [4] [µg/mL] | MIC [5] [µg/mL] | MIC [6] [µg/mL] | MIC [7] [µg/mL] | MIC [8] [µg/mL] | MIC [9] [µg/mL] | MIC [10] [µg/mL] | MIC (streptococcus aronson) [µg/mL] | MIC [11] [µg/mL] | concentration at 1 h ([12]; oral 100 mg/kg) [ng/mL] | concentration at 2 h ([12]; oral 100 mg/kg) [ng/mL] | concentration at 1 h ([12]; sc, subcutaneous 10 mg/kg) [ng/mL] | concentration at 2 h ([12]; sc, subcutaneous 10 mg/kg) [ng/mL] | ED50 (E. coli ATCC 11775 [13]) [mg/kg] | also measured |
| --- | --- | --- | --- | --- | --- | --- | --- | --- | --- | --- | --- | --- | --- | --- | --- | --- | --- | --- |
| Cc1ncc(NC(=O)N[C@@H](C(=O)N[C@@H]2C(=O)N3[C@@H]2SC(C)(C)[C@@H]3C(=O)O)c2ccc(O)cc2)c(O)n1 [B, D-α-[3-(4-hydroxy-2-methyl-5-pyrimidyl)-ureido]-p-hydroxybenzyl-penicillin sodium] | 1.25 | 80 | 1.25 | 2.5 | 80 | 80 | 0.6 | 2.5 | 5 | 5 | 0.3 | 10 | 18800 | 1900 | 7300 | 1100 | 5 |  |
| CC(=O)Nc1ncc(NC(=O)N[C@@H](C(=O)N[C@@H]2C(=O)N3[C@@H]2SC(C)(C)[C@@H]3C(=O)O)c2ccc(O)cc2)c(O)n1 [Compound E, D-α-[3-(acetylamino-4-hydroxy-pyrimidyl)-ureido]-p-hydroxybenzyl-penicillin sodium] | 1.25 | > 80 | 2.5 | 5 | 80 | 80 | 1.25 | 2.5 | 2.5 | 10 | 0.3 | 10 | 13900 | 13700 | 5800 | 7700 | 15 | concentration at 0.5 h ([12]; oral 100 mg/kg): 13800 ng/mL; concentration at 0.5 h ([12]; sc, subcutaneous 10 mg/kg): 4100 ng/mL |
| CC1(C)S[C@@H]2[C@H](NC(=O)[C@H](NC(=O)Nc3cnc(Cc4ccc(Cl)cc4)nc3O)c3ccc(O)cc3)C(=O)N2[C@H]1C(=O)O [D, D-α-[3-(2-p-chlorobenzyl-4-hydroxy-5-pyrimidyl)-ureido]-p-hydroxybenzyl-penicillin sodium] | 0.08 | 80 | 1.25 | 2.5 | 10 | 5 | 1.25 | 2.5 | 5 | 1.25 | 0.02 | 10 | 4100 | 1000 | 7100 | 300 | 9 |  |
| CC1(C)S[C@@H]2[C@H](NC(=O)[C@H](NC(=O)Nc3cnc(Nc4ccccc4)nc3O)c3ccc(O)cc3)C(=O)N2[C@H]1C(=O)O [G, D-α-[3-(2-anilino-4-hydroxy-5-pyrimidyl)-ureido]-p-hydroxy-benzyl-penicillin sodium] | 0.3 | > 80 | 1.25 | 0.6 | 5 | 10 | 2.5 | 2.5 | 5 | 0.3 | 0.08 | 5 | 600 | 100 | 5600 | 1500 | 8 |  |
| CC1(C)S[C@@H]2[C@H](NC(=O)[C@H](NC(=O)Nc3cnc(Nc4ccc(Cl)cc4)nc3O)c3ccc(O)cc3)C(=O)N2[C@H]1C(=O)O [H, D-α-[3-(2-p-chloroanilino-4-hydroxy-5-pyrimidyl)-ureido]-p-hydroxybenzyl-penicillin sodium] | 1.25 | 80 | 0.6 | 1.25 | 2.5 | 5 | 0.6 | 1.25 | 2.5 | 1.25 | 0.08 | 5 |  |  |  |  |  | MIC (E. coli ATCC 11775 [14]; ATCC11775, inoculum 3.3 × 10^2 germs/ml): 0.3 µg/mL; MIC (E. coli ATCC 11775 [14]; ATCC11775, inoculum 3.3 × 10^4 germs/ml): 0.6 µg/mL; MIC (E. coli ATCC 11775 [14]; ATCC11775, inoculum 3.3 × 10^6 germs/ml): 1 µg/mL; MIC (pseud. aerug. hamburg.; inoculum 4.7 × 10^2 germs/ml): 2.5 µg/mL; MIC (pseud. aerug. hamburg.; inoculum 4.7 × 10^4 germs/ml): 2.5 µg/mL; MIC (pseud. aerug. hamburg.; inoculum 4.7 × 10^6 germs/ml): > 80 µg/mL |

— US4241056A, “Penicillins and salts thereof” (Boehringer Ingelheim GmbH, priority 1978, dated 1980)
